Test results reported in patent US11827637B2, “Azaindole derivatives and their use as ERK kinase inhibitors” (AGV Discovery, priority 2022, dated 2023).
Where “and” joins values, the source holds several entries; their conditions need not be identical. Identical values can stand only once.

Columns and labels:
ERK2 (MAPK1) = molecular target: T1, ERK2 (MAPK1) (Homo sapiens, UniProt P28482); experiment: ERK2 (MAPK1) enzymatic assay (Z′-Lyte); assay type: biochemical
T1 construct: purchased Life technologies
T1 sequence (P28482 whole entry): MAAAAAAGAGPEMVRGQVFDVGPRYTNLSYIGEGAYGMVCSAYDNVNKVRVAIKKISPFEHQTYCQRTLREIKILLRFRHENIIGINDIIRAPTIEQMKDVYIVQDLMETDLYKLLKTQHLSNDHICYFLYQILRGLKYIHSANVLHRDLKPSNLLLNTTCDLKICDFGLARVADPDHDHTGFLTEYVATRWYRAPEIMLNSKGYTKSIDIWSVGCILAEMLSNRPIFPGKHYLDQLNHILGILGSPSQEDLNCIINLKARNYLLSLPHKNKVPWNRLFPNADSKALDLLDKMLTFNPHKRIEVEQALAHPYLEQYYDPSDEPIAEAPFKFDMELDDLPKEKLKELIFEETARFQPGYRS
Protocol: To assess the capacity of compounds to inhibit ERK2 enzymatic activity, Z′-Lyte biochemical assay from Life technologies was used according to manufacturer's instructions. Briefly, black 384-well plates containing 100 nl of 100× compound solution in 100% DMSO, 2.4 μl kinase buffer, 5 μl 2×MAPK1 (ERK2)/Ser/Thr 03 mixture and 2.5 μl 4×ATP solution were used. Plates were shaken for 30 seconds and incubated for 60 minutes at room temperature. Then, 5 μl of a 1:1024 dilution of Development Reagent A was added. Plates were shaken for 30 seconds and incubated for 60 minutes at room temperature. A plate reader was used to read fluorescence. […] Kinase buffer consisted of 50 mM HEPES pH 7.5, 0.01% BRIJ-35, 10 mM MgCl2, 1 mM EGTA.

58 kinases = experiment: Kinase panel (Z′-Lyte, Adapta/Lanthascreen), 58 kinases; assay type: biochemical; details: for Kinase panel @500 nM hits > 50%: number of the 58 kinases inhibited more than 50% at 500 nM; for Kinase panel @500 nM hits > 80%: number of the 58 kinases inhibited more than 80% at 500 nM
Protocol: To assess the kinase selectivity of compounds, Z′-Lyte biochemical assay, and Adapta/Lanthascreen binding assays from Life technologies were used according to manufacturer's instructions. Pourcentages of inhibition at 500 nM of test compounds were performed towards 58 kinases: ABL1, ACVR1B (ALK4), AKT2 (PKB beta), AMPK (A1/132/G3), AURKA (Aurora A), AXL, BRAF, BTK, CAMK2B (CaMKII beta), CDK2/cyclin A, CHEK1 (CHK1), CLK1, CSNK1A1 (CK1 alpha 1), CSNK2A1 (CK2 alpha 1), DAPK3 (ZIPK), DYRK1A, EGFR (ErbB1), EPHB3, ERBB2 (HER2), FGFR2, FLT3, FRAP1 (mTOR), GSK3B (GSK3 beta), IGF1R, IKBKB (IKK beta), INSR, IRAK4, JAK2, KDR (VEGFR2), KIT, LCK, MAP2K1 (MEK1), MAPK10 (JNK3), MAPK11 (p38 beta), MAPKAPK2, MARK2, MET (cMet), NEK2, NTRK1 (TRKA), PAK2 (PAK65), PDGFRB (PDGFR beta), PDK1 Direct, PHKG2, PIK3CA/PIK3R1 (p110 alpha/p85 alpha), PIM1, PLK1, PRKACA (PKA), PRKCA (PKC alpha), PTK2 (FAK), RET, ROCK1, RPS6KA1 (RSK1), RPS6KB1 (p70S6K), SRC, STK3 (MST2), SYK, TEK (Tie2), TYRO3 (RSE).

[1] = system: A375 cells (malignant melanoma); experiment: Cell line proliferation assay (MTT, A375); assay type: cell-based; details: Homo sapiens, A-375, 72 hours
Protocol: A cell line assay was used to determine the capacity of compounds to inhibit cell proliferation. A375 cells (malignant melanoma) were grown to near 80% confluence and seeded at 3000 cells per 100 μl per well in DMEM with 10% FBS in 96-well flat bottom plates. Cells were incubated for 24 hours at 37° C. under 5% CO2. 100 μl compound solutions were added to cells and incubated for 72 hours at 37° C. Total volume of media was 200 μl per well. Compounds were screened in 0.15% DMSO (final) using 10 titration points in duplicate. Negative control wells consisted of vehicle only (0.15% DMSO in 10% FBS DMEM). After 72 hours of compound treatment, SDS 1% (final) was added to positive control wells for 15 minutes at 37° C. Then, medium was discarded and replaced by 100 μl per well of a MTT solution (3-[4.5-dimethylthiazol-2-yl]-2.5-diphenyltetrazolium bromide) (Sigma, Cat #M5655) at 0.5 mg/ml in 10% FBS DMEM. Cells were incubated for 4 hours at 37° C. MTT reaction was stopped and homogenized by the addition of 100 μl per well of SDS 10% 0.01M HCl. After 16 hours at 37° C., absorbance was measured at 570 nm in a Bio-Tek plate reader (PowerWave HT). […] Analysis was performed using GraphPad Prism software.

CYP 3A4 = molecular target: T2, CYP 3A4 (Homo sapiens, UniProt P08684); experiment: CYP 3A4 inhibition assay in human hepatocytes; assay type: in vitro ADME; details: cryopreserved human hepatocytes, midazolam probe substrate, 10 min
T2 construct: endogenous in cells; host or cells: cryopreserved human hepatocytes
T2 sequence (P08684 whole entry): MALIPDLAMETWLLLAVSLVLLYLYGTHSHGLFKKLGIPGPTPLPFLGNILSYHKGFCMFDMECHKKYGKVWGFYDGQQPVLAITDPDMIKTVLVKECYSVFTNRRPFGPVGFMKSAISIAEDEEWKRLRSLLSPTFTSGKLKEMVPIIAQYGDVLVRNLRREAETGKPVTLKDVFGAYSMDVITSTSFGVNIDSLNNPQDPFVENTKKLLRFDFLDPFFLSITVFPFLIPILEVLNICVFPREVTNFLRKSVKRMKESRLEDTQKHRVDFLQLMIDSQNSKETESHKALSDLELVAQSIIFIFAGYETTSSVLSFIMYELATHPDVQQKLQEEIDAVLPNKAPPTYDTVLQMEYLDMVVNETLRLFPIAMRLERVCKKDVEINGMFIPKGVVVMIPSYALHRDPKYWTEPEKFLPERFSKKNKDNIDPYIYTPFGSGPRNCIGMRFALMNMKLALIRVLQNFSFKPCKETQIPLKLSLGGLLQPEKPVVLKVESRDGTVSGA
Protocol: To assess the capacity of compounds to inhibit CYP 3A4 enzymatic activity, the test compounds (0.1 μM-25 μM) were incubated with cryopreserved human hepatocytes for 10 min in the presence of the specific CYP3A4 probe substrate, midazolam. 1-Hydroxymidazolam was monitored by LC-MS/MS and a decrease in the formation of the metabolite compared to the vehicle control was used to calculate an IC50 value.

hERG channel = molecular target: T3, hERG channel (Homo sapiens, UniProt Q12809); experiment: hERG channel inhibition assay (patch clamp); assay type: cell-based; details: whole-cell patch clamp, CHO cell line expressing hERG
T3 construct: a Chinese Hamster Ovary cell line stably expressing the full-length ion channel; expressed in transfected cells; host or cells: Chinese Hamster Ovary cell line
T3 sequence (Q12809 whole entry): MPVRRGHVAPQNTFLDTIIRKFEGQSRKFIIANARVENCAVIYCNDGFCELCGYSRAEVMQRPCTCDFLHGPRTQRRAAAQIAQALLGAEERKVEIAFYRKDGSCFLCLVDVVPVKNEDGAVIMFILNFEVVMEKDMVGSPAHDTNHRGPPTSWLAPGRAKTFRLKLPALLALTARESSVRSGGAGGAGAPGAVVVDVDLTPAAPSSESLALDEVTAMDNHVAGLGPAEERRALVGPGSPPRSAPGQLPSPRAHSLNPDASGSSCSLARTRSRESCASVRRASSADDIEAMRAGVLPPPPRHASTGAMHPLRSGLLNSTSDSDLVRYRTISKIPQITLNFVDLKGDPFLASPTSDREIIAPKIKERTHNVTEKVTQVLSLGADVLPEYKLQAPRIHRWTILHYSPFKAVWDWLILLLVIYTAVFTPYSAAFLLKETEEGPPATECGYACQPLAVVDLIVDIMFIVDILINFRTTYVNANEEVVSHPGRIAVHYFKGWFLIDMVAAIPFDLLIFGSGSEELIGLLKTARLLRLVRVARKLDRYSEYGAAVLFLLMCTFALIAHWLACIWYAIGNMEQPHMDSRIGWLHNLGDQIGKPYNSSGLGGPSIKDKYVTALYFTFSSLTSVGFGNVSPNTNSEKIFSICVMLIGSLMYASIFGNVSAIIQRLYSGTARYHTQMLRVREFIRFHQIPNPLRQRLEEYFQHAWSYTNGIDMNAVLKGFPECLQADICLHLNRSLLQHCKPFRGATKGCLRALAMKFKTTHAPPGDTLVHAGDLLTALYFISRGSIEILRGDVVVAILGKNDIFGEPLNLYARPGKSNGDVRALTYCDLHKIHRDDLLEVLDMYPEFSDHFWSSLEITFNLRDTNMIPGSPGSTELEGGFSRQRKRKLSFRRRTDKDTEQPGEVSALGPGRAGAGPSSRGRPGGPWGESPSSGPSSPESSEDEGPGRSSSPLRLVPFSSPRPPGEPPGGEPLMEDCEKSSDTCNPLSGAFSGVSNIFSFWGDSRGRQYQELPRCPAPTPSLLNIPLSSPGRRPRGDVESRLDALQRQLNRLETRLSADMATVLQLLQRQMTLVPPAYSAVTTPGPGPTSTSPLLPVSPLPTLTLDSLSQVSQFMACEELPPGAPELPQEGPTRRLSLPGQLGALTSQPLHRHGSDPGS
Protocol: Compounds were used as a 10 mM stock in DMSO before dilution in HEPES-buffered saline to 30 μM. 6-point concentration-response curves were generated using 3.16-fold serial dilutions from the top test concentration. Electrophysiological recordings were made from a Chinese Hamster Ovary cell line stably expressing the full-length ion channel. Single cell ionic currents were measured in whole-cell configuration at room temperature (21-23° C.) using a Patchliner (Nanion Technologies). The internal solution for hERG contained (mM): 120 KF, 20 KCl, 10 EGTA, 10 HEPES and was buffered to pH 7.3. The external solution (HEPES-buffered saline, HEPES-buffered saline) contained (mM): 138 NaCl, 4.5 KCl, 1.8 CaCl2), 1.0 MgCl2, 10 HEPES, 10 glucose, buffered to pH 7.4. […] Currents were measured from the step and referenced to the holding current. Compounds were then incubated for 2 minutes to achieve steady state prior to addition of the next concentration.

PK experiments in mice = assay type: in vivo; details: mouse, plasma, male BalbC mice, @20 mpk PO, @1 mpk IV
Protocol: For intravenous injection, a single 1 mg/kg dose was injected in tail vein and blood was collected at 0.12, 0.25, 0.5, 1, 2, 4, 8 and 24 h after injection. For oral route, a single 20 mg/kg dose was administered, and blood was collected at 0.25, 0.5, 1, 2, 4, 8, 10 and 24 h after gavage. Plasma separated from blood samples was stored at −20° C. until analysis. Vials containing the study samples were retrieved and thawed to room temperature. A volume of 50 μl of sample was added to 200 μl of acetronitrile containing internal standard (tolbutamide; 25 ng/mL) and vortexed for 5 min and centrifuged at 14000 rpm for 5 min at 4° C. 200 μl of supernatant was separated and transferred to HPLC vial for analysis. For prodrug pharmacokinetics, only parent drug was dosed by HPLC.

Caco 2 cell lines = details: Caco-2, pH 7.4
Protocol: Caco 2 cell lines were used for the in vitro transport studies and were obtained from ATCC. Cells were split every other day at a split ratio of 1:3-1:5 and grown in Dulbecco's Modified Eagle Medium (GlutaMAX I, 4,500 mg/L D-glucose, sodium pyruvate.) supplemented with 10% FBS in the presence of antibiotics. For transport studies, cells were seeded onto polycarbonate Transwell filter membranes (Millipore) at a density of 60,000 cells/well. After 24 h post seeding, changed medium and cultured for another 21 days before transport experiments. For transport studies, donor solutions were prepared by diluting the stock solutions of test compounds in transport medium (HBSS buffer with 10 mM HEPES, pH 7.4). Receiver solutions were the same HBSS buffer with 10 mM HEPES, pH 7.4. The transport of test compounds (5 μM) was measured in duplicate in two directions [apical to basolateral (A→B) and basolateral to apical (B→A)].
The permeability coefficient for membrane transport of test compounds was determined using the following equation: Papp (cm/sec)=(Vr/CO) (1/S) (dC/dt); Papp=apparent permeability, Vr=volume of medium in the receiver chamber, CO=PAR of the test drug in the receiver chamber, S=surface area of monolayer, dC/dt=drug PAR in the receiver chamber with time). Efflux Ratio was defined as: Efflux Ratio=Papp B-A/Papp A-B Bioanalysis was done on LC-MS/MS.

Row | Compound | IC50 (ERK2 (MAPK1)) | Kinase panel @500 nM hits > 50% (58 kinases) | Kinase panel @500 nM hits > 80% (58 kinases) | IC50 [1] | IC50 (CYP 3A4) | IC50 (hERG channel) | bioavailability (PK experiments in mice; 20 mg/kg) | Cmax (PK experiments in mice) | half-life (PK experiments in mice) | Papp A-B (Caco 2 cell lines)
1 | CN(C)C[C@H](c1ccc(Cl)c(Cl)c1)n1ccc(-c2c[nH]c3ncc(N4CCOCC4)cc23)cc1=O [Compound no4 (S), (S)-1-(1-(3,4-dichlorophenyl)-2-(dimethylamino)ethyl)-4-(5-morpholino-1H-pyrrolo[2,3-b]pyridin-3-yl)pyridin-2(1H)-one] | 0.0031 µM | 5/58 | 1/58 | 0.072 µM |  |  |  |  |  | 
2 | CN(C)C[C@H](c1cccc(F)c1)n1ccc(-c2c[nH]c3ncc(N4CCOCC4)cc23)cc1=O [Compound no1 (S), (S)-1-(2-(dimethylamino)-1-(3-fluorophenyl)ethyl)-4-(5-morpholino-1H-pyrrolo[2,3-b]pyridin-3-yl)pyridin-2(1H)-one] | 0.0012 µM | 2/58 | 1/58 | 0.107 µM |  |  |  |  |  | 
3 | CN(C)C[C@H](c1ccc(F)c(F)c1)n1ccc(-c2c[nH]c3ncc(N4CCOCC4)cc23)cc1=O [Compound no17 (S), (S)-1-(1-(3,4-difluorophenyl)-2-(dimethylamino)ethyl)-4-(5-morpholino-1H-pyrrolo[2,3-b]pyridin-3-yl)pyridin-2(1H)-one] | 0.0027 µM |  |  | 0.103 µM |  |  |  |  |  | 
4 | CN(C)C[C@H](c1cccc(Br)c1)n1ccc(-c2c[nH]c3ncc(N4CCOCC4)cc23)cc1=O [Compound no5 (S), (S)-1-(1-(3-bromophenyl)-2-(dimethylamino)ethyl)-4-(5-morpholino-1H-pyrrolo[2,3-b]pyridin-3-yl)pyridin-2(1H)-one] | 0.0045 µM | 7/58 | 1/58 | 0.077 µM | 9.5 µM | 20.5 µM | 9.2% | 1730 ng/mL and 3.3 µM | 1.83 h | 
5 | COCc1cc(Cl)cc([C@@H](CN(C)C)n2ccc(-c3c[nH]c4ncc(N5CCOCC5)cc34)cc2=O)c1 [Compound no23 (S), (S)-1-(1-(3-chloro-5-(methoxymethyl)phenyl)-2-(dimethylamino)ethyl)-4-(5-morpholino-1H-pyrrolo[2,3-b]pyridin-3-yl)pyridin-2(1H)-one] | 0.0045 µM |  |  | 0.008 µM |  |  |  |  |  | 
6 | CN(C)C[C@H](c1cccc(Cl)c1)n1ccc(-c2c[nH]c3ncc(N4CCOCC4)cc23)cc1=O [Compound no2 (S), (S)-1-(1-(3-chlorophenyl)-2-(dimethylamino)ethyl)-4-(5-morpholino-1H-pyrrolo[2,3-b]pyridin-3-yl)pyridin-2(1H)-one] | 0.0021 µM | 10/58 | 1/58 | 0.035 µM |  |  |  |  |  | 
7 | (S)-1-(2-amino-1-(3-chlorophenyl)ethyl)-4-(5-morpholino-1H-pyrrolo[2,3-b]pyridin-3-yl)pyridin-2(1H)-one [Comparative compound A (S), reference compound] |  | 26/58 | 15/58 |  |  |  |  |  |  | < 10 10^−6 cm/s
8 | CN(C)C[C@H](c1cc(Cl)cc(Cl)c1)n1ccc(-c2c[nH]c3ncc(N4CCOCC4)cc23)cc1=O [Compound no3 (S), (S)-1-(1-(3,5-dichlorophenyl)-2-(dimethylamino)ethyl)-4-(5-morpholino-1H-pyrrolo[2,3-b]pyridin-3-yl)pyridin-2(1H)-one] | 0.0032 µM | 6/58 | 1/58 | 0.132 µM |  |  |  |  |  | 
9 | CN(C)C[C@H](c1ccc(F)c(Br)c1)n1ccc(-c2c[nH]c3ncc(N4CCOCC4)cc23)cc1=O [Compound no7 (S), (S)-1-(1-(3-bromo-4-fluorophenyl)-2-(dimethylamino)ethyl)-4-(5-morpholino-1H-pyrrolo[2,3-b]pyridin-3-yl)pyridin-2(1H)-one] | 0.0041 µM | 4/58 | 1/58 | 0.053 µM |  |  |  |  |  | 
10 | CN(C)C[C@H](c1ccc(F)c(I)c1)n1ccc(-c2c[nH]c3ncc(N4CCOCC4)cc23)cc1=O [Compound no8 (S), (S)-1-(2-(dimethylamino)-1-(4-fluoro-3-iodophenyl)ethyl)-4-(5-morpholino-1H-pyrrolo[2,3-b]pyridin-3-yl)pyridin-2(1H)-one] | 0.0022 µM | 7/58 | 1/58 | 0.064 µM |  |  |  |  |  | 
